In ChEMBL document CHEMBL5137082, “Discovery of a Novel Vascular Disrupting Agent Inhibiting Tubulin Polymerization and HDACs with Potent Antitumor Effects” (J Med Chem, 2022):
The source made the active and inactive calls. The rule behind the calls is not given here.

How the values were obtained:
HepG2 [1] = test: Induction of cell cycle arrest in human HepG2 cells assessed as accumulation G1 phase at 7.5 nM incubated for 48 hrs by propidium iodide staining based flow cytometry analysis (reference value: 59.32 +/- 0.77%); type: functional
PC-3 [2] = test: Induction of apoptosis in human PC-3 cells assessed as mitochondrial membrane potential loss by measuring early apoptotic cells at 30 nM incubated for 48 hrs by JC1 staining based flow cytometry analysis (reference value: 6.50 +/- 0.17%); type: functional
PC-3 [3] = test: Induction of apoptosis in human PC-3 cells assessed as mitochondrial membrane potential loss by measuring early apoptotic cells at 15 nM incubated for 48 hrs by JC1 staining based flow cytometry analysis (reference value: 6.50 +/- 0.17%); type: functional
HUVEC = test: Antivascular activity against HUVEC cells assessed as inhibition of capillary-like tubule formation at 30 nM measured after 6 hrs by inverted microscopy; type: functional, cell-based; settings: Homo sapiens
HepG2 [4] = test: Induction of cell cycle arrest in human HepG2 cells assessed as accumulation G2 phase at 15 nM incubated for 48 hrs by propidium iodide staining based flow cytometry analysis (reference value: 23.55 +/- 0.29%); type: functional
[5] = Toxicity in ICR mouse allografted with mouse H22 cells assessed as systolic blood pressure at 20 mg/kg, iv administered qd measured after 21 days; type: organism-based; settings: in vivo, 504 h, time 21 day
[6] = Toxicity in ICR mouse allografted with mouse H22 cells assessed as pathological changes in spleen at 20 mg/kg, iv administered qd measured after 21 days by H and E staining based analysis; type: organism-based; settings: in vivo, 504 h, time 21 day
HepG2 [7] = test: Induction of cell cycle arrest in human HepG2 cells assessed as accumulation S phase at 30 nM incubated for 48 hrs by propidium iodide staining based flow cytometry analysis (reference value: 17.14 +/- 0.34%); type: functional

COc1ccc(CNC(=O)c2cc(F)ccc2N2CCOCC2)cc1/C=C/C(=O)NO
Activity (HepG2 [1]): 54.77%
Activity (PC-3 [2]): 59.5%
Activity (PC-3 [3]): 35.4%
Activity (HUVEC): Active
Activity (HepG2 [4]): 26.97%
Activity [5]: Non-Toxic
Activity [6]: Non-Toxic
Activity (HepG2 [7]): 23.58%
